Consider two molecules from US7026317B2, “Pyrazolotriazines as CRF antagonists” (Bristol-Myers Squibb Pharma Company, priority 1999, dated 2006).

In turn, `CCc1nn2c(-c3ccc(Cl)cc3Cl)nc(C)nc2c1C(CC)CC` [compound 1, 4-(2,4-dichlorophenyl)-8-(3-pentyl)-7-ethyl-2-methyl-pyrazolo[1,5-a]-1,3,5-triazine] had a melting point of 91 to 93 °C. In the case of `CCc1nn2c(-c3ccc(Cl)cc3Cl)nc(C)nc2c1N(CC)CC` [compound 3, 4-(2,4-dichlorophenyl)-8-diethylamino-7-ethyl-2-methyl-pyrazolo[1,5-a]-1,3,5-triazine] it was 98 to 99 °C.

One may read the melting point as the temperature, or range, at which the solid turns liquid.
